In PubChem BioAssay (NCI):
Several values for one entry are separate records, joined by “and”; a condition that tells them apart may be missing. Equal values may be shown once.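 Following 48 hours of exposure in 96-well plates, responses at five concentrations were used to interpolate endpoints linearly. GI50: concentration for 50% inhibition of growth. TGI: concentration producing complete growth inhibition.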 *1 amine or outer side, *2 acyl side, *3 side chain or, on linkers, in order; H or OH if unused. Where a SMILES comes first, the peptide text is derived from it. Bridges are numbered along the chain shown (N, C = ends). Roman numbers before positions name the chains, in order. X23 = CCCCCCCCCCCCCCC(=O)NC(CCCCN[*:2])C(=O)CN1CCCC1C(=O)[*:1]

Columns and labels:
Test in all cases: NCI anticancer screen, dose series, 48 h
CAKI-1 renal = test system: CAKI-1 renal
CCRF-CEM leukemia = test system: CCRF-CEM leukemia
M14 melanoma = test system: M14 melanoma
NCI-H522 lung = test system: NCI-H522 lung
SNB-75 CNS = test system: SNB-75 CNS
T-47D breast = test system: T-47D breast
SR leukemia = test system: SR leukemia
DMS 273 small cell lung = test system: DMS 273 small cell lung
LXFL 529 NSCLC = test system: LXFL 529 NSCLC
SNB-78 CNS = test system: SNB-78 CNS

SMILES | GI50 (CAKI-1 renal) | TGI (CAKI-1 renal) | GI50 (CCRF-CEM leukemia) | TGI (CCRF-CEM leukemia) | GI50 (M14 melanoma) | TGI (M14 melanoma) | GI50 (NCI-H522 lung) | TGI (NCI-H522 lung) | GI50 (SNB-75 CNS) | TGI (SNB-75 CNS) | GI50 (T-47D breast) | TGI (T-47D breast) | TGI (SR leukemia) | GI50 (DMS 273 small cell lung) | TGI (DMS 273 small cell lung) | TGI (LXFL 529 NSCLC) | GI50 (SNB-78 CNS) | TGI (SNB-78 CNS) | GI50 (SR leukemia) | GI50 (LXFL 529 NSCLC)
CCCCCCCCCCCCCCC(=O)NC(CCCCNC(=O)C1CCCN1C(=O)C(CCCCN)NC(=O)C(CCCCN)NC(=O)C(CCCCN)NC(=O)C(CCCNC(=N)N)NC(=O)C(CCCCN)NC(=O)C(N)C(C)C)C(=O)CN1CCCC1C(=O)NCC(=O)NC(Cc1ccccc1)C(=O)N1CCCC1C(=O)NC(CO)C(=O)NC(Cc1ccc(O)cc1)C(=O)NC(CCCCN)C(=O)NC(CC(C)C)C(=O)NC(CCCNC(=N)N)C(=O)N1CCCC1C(=O)NCC(N)=O (stereo not given) (I: GFPSYKLRPG-NH2 / II: H-VKRKKKP; linker I:N-II:C via X23; configuration not given here) | 14 µM | 36.9 µM | 16.5 µM | 35.1 µM | 22.8 µM | 55.6 µM | 21.8 µM | 66.3 µM | 31.5 µM | 76.7 µM | 3.17 µM | 13.9 µM |  |  |  |  |  |  |  | 
O=C1/C(=C/c2ccc3c(c2)OCO3)Sc2scc(-c3ccc(O)c(O)c3)[n+]21 |  | 2.9 µM |  |  |  | 13.3 µM |  |  |  | 5.54 µM |  | > 100 µM |  |  |  |  |  |  |  | 
O=CNNC(=O)CSc1nc2ccc(I)cc2c(=O)n1Cc1ccccc1 |  | 57.5 µM |  | > 100 µM |  | > 100 µM |  | 57.4 µM |  | > 100 µM |  | > 100 µM | > 100 µM |  |  |  |  |  |  | 
CC(=O)C1=C(C)N(c2ccc(C)cc2)C2(O)C=CC(=O)C3=C(O)c4ccccc4C(=O)C312 (stereo not given) |  | 35.8 µM |  |  |  | > 100 µM |  | 32.5 µM |  | 49.9 µM |  | > 100 µM | > 100 µM |  |  |  |  |  |  | 
COc1cccc2c1C(=O)c1c(O)c3c(c(O)c1C2=O)C[C@@](O)(C(C)=O)C[C@@H]3OC1CC(N(C)C)C(O)C(C)O1 (stereo not given in full) |  | 0.56 µM and 0.593 µM | 0.0291 µM |  | 0.0437 µM |  | 0.036 µM and 0.021 µM |  | 0.138 µM and 0.0219 µM |  |  | 0.00329 µM |  | 0.0054 µM | 0.204 µM and 0.18 µM | 1 µM | 0.0302 µM and 0.0169 µM | 1.04 µM and 0.467 µM | 0.00237 µM | 
COC1=CCC2=C(CCN(C(=O)C3CC3)C2Cc2ccc(OC)c(O)c2)C1 (stereo not given) |  | > 100 µM |  | > 100 µM |  | > 100 µM |  | 82.4 µM |  | 67.4 µM |  | 70.9 µM | 82.6 µM |  |  |  |  |  |  | 
Nc1nccc2c1ncn2C1C=C(CO)C(O)C1O (stereo not given) |  |  | 1.91 µM | > 1000 µM | 7.18 µM | > 1000 µM | > 1000 µM | > 1000 µM | > 1000 µM | > 1000 µM |  |  |  | 6.13 µM | > 1000 µM | > 1000 µM | > 1000 µM | > 1000 µM |  | > 1000 µM
O=C1CSc2sc(=S)sc2S1 |  |  |  | > 100 µM |  |  |  | > 100 µM |  | > 100 µM |  |  |  |  | > 100 µM |  |  | 99.2 µM |  | 
O=C1NC2(NC(=O)C1=O)Nc1ccccc1S2 |  | > 100 µM |  | 66.3 µM |  | > 100 µM |  | 50 µM |  | > 100 µM |  |  | 61.9 µM |  | > 100 µM | > 87.3 µM |  | > 100 µM |  | 
Cc1cc(O)c2cc3c(O)c(O)ccc3cc2c1 |  | 6.63 µM |  | 22.6 µM |  | 20 µM |  | 3.98 µM |  | 8.95 µM |  | 6.28 µM | 3.25 µM |  |  |  |  |  |  | 
O=[P+](O)c1cccs1 |  | > 100 µM |  | > 100 µM |  | > 100 µM |  | > 100 µM |  |  |  |  |  |  | > 100 µM | > 100 µM |  |  |  | 
O=NN(CCCl)C(=O)Nc1ccc(Cl)c(Cl)c1 |  | > 100 µM |  | > 100 µM |  |  |  | > 89.5 µM |  | > 100 µM |  |  |  |  | > 100 µM |  |  | > 100 µM |  | 
CC1C(O)[C@@]2(OC[C@@]34C(=O)CC5(O)[C@H](CCC6Cc7nc8c(nc7C[C@]65C)CC5CC[C@@H]6C7=C[C@H]9O[C@@]%10(O[C@@](C)(CO)C[C@@H]%10O)C(C)[C@@]9(O)[C@]7(C)[C@@H](O)CC6[C@]5(C)C8)C3=CC[C@H]4C2C)OC1(C)C (stereo not given in full) |  | 0.977 µM |  | 0.0966 µM |  |  |  | 0.083 µM |  | 0.215 µM |  |  |  |  | 0.000455 µM |  |  | 3.44 µM |  | 
Cc1ccc([S+](c2ccccc2)c2cc(C)ccc2C)cc1 (stereo not given) |  | > 100 µM |  | > 100 µM |  | > 100 µM |  | 28.2 µM |  | 2.9 µM |  |  | > 100 µM |  | 15.3 µM |  |  |  |  | 
CC(=O)OCC1OC(N2C(=O)CC(N)=Nc3ccccc32)C(OC(C)=O)C(OC(C)=O)C1OC(C)=O (stereo not given) |  | > 100 µM |  | > 100 µM |  | > 100 µM |  |  |  | > 100 µM |  | 82.2 µM | > 100 µM |  |  |  |  |  |  | 
CN(CCNC(=O)c1cn(C)c2c1ccc1cc(Cl)ccc12)CCNC(=O)c1cn(C)c2c1ccc1cc(Cl)ccc12 |  | 4.99 µM |  | 66 µM |  | 3 µM |  | 3.68 µM |  |  |  |  | 38 µM |  |  |  |  |  |  | 
CCc1cccc(C(C)C)c1NC1=C([n+]2ccc(C)cc2)C(=O)c2ccccc2C1=O |  | 5.41 µM |  | 4 µM |  | 3.16 µM |  | 15.8 µM |  | 7.32 µM |  | 2.24 µM |  |  |  |  |  |  |  | 
Oc1ccc(NCc2cc(O)ccc2O)cc1 |  | 34.9 µM |  |  |  | 33.9 µM |  |  |  | 33 µM |  | 52.1 µM |  |  |  |  |  |  |  | 
COC[C@@H]1Cc2cc(OC)c3c(c2[C@H](c2ccc(OC)c(OC)c2)[C@H]1COC)OCO3 |  |  |  | > 100 µM |  | > 100 µM |  | > 100 µM |  | 83.2 µM |  |  | > 100 µM |  | > 100 µM | > 100 µM |  |  |  | 
C[As](C)SCC(NC(=O)CCC(N)C(=O)O)C(=O)NCC(=O)O.Cl.c1ccncc1 (stereo not given) |  | 0.652 µM |  | 6.31 µM |  | 1.12 µM |  | 0.267 µM |  | 14.8 µM |  | 1.19 µM | 0.076 µM |  |  |  |  |  |  | 
O=CN(O)CC(=O)O.[Ni] | > 100 µM | > 100 µM |  | > 100 µM |  | > 100 µM | > 100 µM | > 100 µM |  | > 100 µM |  | > 100 µM | > 100 µM |  |  |  |  |  |  | 
CC(C)(C)OC(=O)N1CCCC1C(=O)NCCNc1ccc(NCCNC(=O)C2CCCN2C(=O)OC(C)(C)C)c2c1C(=O)c1ccccc1C2=O (stereo not given) |  | 36.9 µM |  | > 100 µM |  | 29.8 µM |  | 29.7 µM |  | 87.9 µM |  |  | > 100 µM |  |  |  |  |  |  | 
Cc1ccc(NC(=O)CC(=O)n2nc(-c3ccccc3)c(N=Nc3ccccc3C(=O)O)c2-c2ccccc2)cc1 |  | > 100 µM |  |  |  |  |  | > 100 µM |  |  |  |  | > 100 µM |  | > 100 µM | > 100 µM |  |  |  | 
NS(=O)(=O)c1ccc(N=Nc2ccc(O)c(O)c2)cc1 |  | > 100 µM |  | 60 µM |  | 65.2 µM |  | 3.1 µM |  | 60.8 µM |  | > 100 µM | 48 µM |  |  |  |  |  |  | 
OCCSCc1cc(Cl)cc(Cl)c1O |  | > 100 µM |  | > 100 µM |  | > 100 µM |  | > 100 µM |  |  |  | > 100 µM |  |  |  |  |  |  |  | 
